Values quoted from earlier work as cited in patent US8709720B2, “Methods and kits for predicting the responsiveness of hepatocellular carcinoma patients to 5-fluorouracil-based combination chemotherapy” (priority 2012, dated 2014).

Tested on: advanced HCC
Settings: advanced HCC patients, prior research / clinical trials

## COc1cccc2c1C(=O)c1c(O)c3c(c(O)c1C2=O)C[C@@](O)(C(=O)CO)C[C@@H]3O[C@H]1C[C@H](N)[C@H](O)[C@H](C)O1 [doxorubicin]
  response rate: 32%
